Reference: ChEMBL document CHEMBL4321812, “Structure-based rational design of staurosporine-based fluorescent probe with broad-ranging kinase affinity for kinase panel application” (Bioorg Med Chem Lett, 2019)

Legend:
[1] = biological target: Mitogen-activated protein kinase 9 (Homo sapiens, UniProt P45984); assay: Binding affinity to recombinant full-length N-terminal His-FLAG-tagged MAPK9 (unknown origin) expressed in baculovirus infected Sf9 insect cells incubated for 1 hr by TR-FRET assay
[2] = biological target: Homeodomain-interacting protein kinase 2 (Homo sapiens, UniProt Q9H2X6); assay: Binding affinity to recombinant full-length N-terminal His-FLAG-tagged HIPK2 (unknown origin) expressed in baculovirus infected Sf9 insect cells incubated for 1 hr by TR-FRET assay
Chain of Homeodomain-interacting protein kinase 2 (Q9H2X6 whole entry): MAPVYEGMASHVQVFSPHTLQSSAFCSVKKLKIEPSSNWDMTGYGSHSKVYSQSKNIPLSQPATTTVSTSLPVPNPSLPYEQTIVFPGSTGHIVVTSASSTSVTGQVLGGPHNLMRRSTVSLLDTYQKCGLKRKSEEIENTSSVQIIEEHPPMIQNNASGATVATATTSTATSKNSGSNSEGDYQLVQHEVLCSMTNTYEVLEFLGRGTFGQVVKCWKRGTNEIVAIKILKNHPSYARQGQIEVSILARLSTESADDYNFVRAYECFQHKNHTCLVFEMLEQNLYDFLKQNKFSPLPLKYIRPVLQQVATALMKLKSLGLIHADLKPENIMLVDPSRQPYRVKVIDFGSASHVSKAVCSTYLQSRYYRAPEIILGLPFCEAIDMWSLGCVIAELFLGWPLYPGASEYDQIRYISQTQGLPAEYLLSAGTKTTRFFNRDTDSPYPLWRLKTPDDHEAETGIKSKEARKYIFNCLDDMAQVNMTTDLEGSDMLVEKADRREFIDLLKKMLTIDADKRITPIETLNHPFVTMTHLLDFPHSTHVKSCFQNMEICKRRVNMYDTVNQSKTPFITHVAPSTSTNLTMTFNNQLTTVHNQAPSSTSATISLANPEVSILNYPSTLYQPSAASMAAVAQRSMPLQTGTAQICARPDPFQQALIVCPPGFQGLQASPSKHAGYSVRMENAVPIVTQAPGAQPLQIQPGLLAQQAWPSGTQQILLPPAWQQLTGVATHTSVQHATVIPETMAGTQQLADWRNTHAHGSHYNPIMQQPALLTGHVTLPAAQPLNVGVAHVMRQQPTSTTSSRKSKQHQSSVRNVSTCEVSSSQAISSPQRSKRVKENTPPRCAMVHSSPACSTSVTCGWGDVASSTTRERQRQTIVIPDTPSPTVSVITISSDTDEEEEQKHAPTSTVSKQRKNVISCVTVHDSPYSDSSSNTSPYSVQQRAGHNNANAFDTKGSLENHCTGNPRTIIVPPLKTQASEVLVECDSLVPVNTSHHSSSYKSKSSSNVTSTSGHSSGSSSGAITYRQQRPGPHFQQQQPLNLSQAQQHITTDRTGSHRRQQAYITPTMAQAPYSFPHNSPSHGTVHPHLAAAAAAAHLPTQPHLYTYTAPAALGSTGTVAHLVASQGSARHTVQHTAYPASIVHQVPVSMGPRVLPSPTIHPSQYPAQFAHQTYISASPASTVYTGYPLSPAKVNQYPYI

[3] = biological target: Serine/threonine-protein kinase Chk1 (Homo sapiens, UniProt O14757); assay: Binding affinity to recombinant human full-length N-terminal His-tagged CHEK1 expressed in baculovirus expression system using CHKtide as substrate incubated for 1 hr by TR-FRET assay
[4] = biological target: CDK2/Cyclin A2 (Homo sapiens, UniProt P24941); assay: Binding affinity to recombinant human full-length N-terminal GST-tagged CDK2/cyclin A2 expressed in baculovirus expression system using modified Histone H1 as substrate incubated for 1 hr by TR-FRET assay
[5] = biological target: Tyrosine-protein kinase ABL1 (Homo sapiens, UniProt P00519); assay: Binding affinity to recombinant human full-length N-terminal His-tagged ABL1 expressed in baculovirus expression system incubated for 1 hr by TR-FRET assay
[6] = biological target: Tyrosine-protein kinase JAK2 (Homo sapiens, UniProt O60674); assay: Binding affinity to recombinant N-terminal His-FLAG-GST-tagged JAK2 (unknown origin) (826 to 1132 residues) expressed in baculovirus infected Sf9 insect cells incubated for 1 hr by TR-FRET assay
[7] = biological target: Serine/threonine-protein kinase pim-3 (Homo sapiens, UniProt Q86V86); assay: Binding affinity to recombinant human full-length N-terminal GST-tagged PIM3 expressed in baculovirus expression system using S6K2 peptide as substrate incubated for 1 hr by TR-FRET assay
[8] = biological target: Serine/threonine-protein kinase Chk2 (Homo sapiens, UniProt O96017); assay: Binding affinity to recombinant full-length N-terminal His-FLAG-GST-tagged CHEK2 (unknown origin) expressed in baculovirus infected Sf9 insect cells incubated for 1 hr by TR-FRET assay
[9] = biological target: Ephrin type-A receptor 4 (Homo sapiens, UniProt P54764); assay: Binding affinity to recombinant N-terminal His-FLAG-GST-tagged EPHA4 (unknown origin) (586 to 986 residues) expressed in baculovirus infected Sf9 insect cells incubated for 1 hr by TR-FRET assay
Chain of Ephrin type-A receptor 4 (P54764 whole entry, the tested form may be a part): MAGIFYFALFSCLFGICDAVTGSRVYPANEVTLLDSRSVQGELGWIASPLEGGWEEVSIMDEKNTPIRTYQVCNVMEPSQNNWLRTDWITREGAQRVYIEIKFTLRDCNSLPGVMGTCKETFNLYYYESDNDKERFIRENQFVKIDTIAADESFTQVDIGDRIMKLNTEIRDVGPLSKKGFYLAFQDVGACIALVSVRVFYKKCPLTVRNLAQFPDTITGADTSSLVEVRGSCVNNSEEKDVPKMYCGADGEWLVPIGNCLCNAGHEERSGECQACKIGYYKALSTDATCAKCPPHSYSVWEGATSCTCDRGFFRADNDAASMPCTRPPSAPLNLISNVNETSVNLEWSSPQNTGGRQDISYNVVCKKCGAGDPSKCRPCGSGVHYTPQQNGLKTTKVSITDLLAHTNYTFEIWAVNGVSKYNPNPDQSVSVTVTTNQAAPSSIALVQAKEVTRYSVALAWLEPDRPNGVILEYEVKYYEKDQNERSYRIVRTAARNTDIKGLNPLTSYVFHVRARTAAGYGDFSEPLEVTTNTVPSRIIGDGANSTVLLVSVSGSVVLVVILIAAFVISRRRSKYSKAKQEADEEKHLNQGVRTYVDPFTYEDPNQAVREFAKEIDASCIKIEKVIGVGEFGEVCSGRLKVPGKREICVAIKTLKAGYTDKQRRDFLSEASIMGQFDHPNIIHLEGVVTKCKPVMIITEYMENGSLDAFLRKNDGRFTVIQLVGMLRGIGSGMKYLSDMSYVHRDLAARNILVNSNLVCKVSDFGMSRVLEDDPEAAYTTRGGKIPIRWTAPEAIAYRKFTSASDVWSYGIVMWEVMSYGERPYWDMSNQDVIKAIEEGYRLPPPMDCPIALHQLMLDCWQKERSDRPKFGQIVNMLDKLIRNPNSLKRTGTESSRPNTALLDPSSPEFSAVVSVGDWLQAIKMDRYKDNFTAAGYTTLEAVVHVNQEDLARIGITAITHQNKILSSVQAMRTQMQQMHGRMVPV

[10] = biological target: Serine/threonine-protein kinase MRCK gamma (Homo sapiens, UniProt Q6DT37); assay: Binding affinity to recombinant full-length N-terminal His-FLAG-GST-tagged DMPK2 (unknown origin) expressed in baculovirus infected Sf9 insect cells incubated for 1 hr by TR-FRET assay
[11] = biological target: Tyrosine-protein kinase ZAP-70 (Homo sapiens, UniProt P43403); assay: Binding affinity to recombinant full-length N-terminal His-FLAG-GST-tagged ZAP70 (unknown origin) expressed in baculovirus infected Sf9 insect cells incubated for 1 hr by TR-FRET assay
[12] = biological target: Ephrin type-A receptor 3 (Homo sapiens, UniProt P29320); assay: Binding affinity to recombinant N-terminal His-FLAG-GST-tagged EPHA3 (unknown origin) (579 to 983 residues) expressed in baculovirus infected Sf9 insect cells incubated for 1 hr by TR-FRET assay
[13] = biological target: cAMP-dependent protein kinase catalytic subunit PRKX (Homo sapiens, UniProt P51817); assay: Binding affinity to recombinant full-length N-terminal His-FLAG-GST-tagged PRKX (unknown origin) expressed in baculovirus infected Sf9 insect cells incubated for 1 hr by TR-FRET assay
[14] = biological target: Ephrin type-B receptor 2 (Homo sapiens, UniProt P29323); assay: Binding affinity to recombinant N-terminal His-FLAG-GST-tagged EPHB2 (unknown origin) (581 to 986 residues) expressed in baculovirus infected Sf9 insect cells incubated for 1 hr by TR-FRET assay
Chain of Ephrin type-B receptor 2 (P29323 whole entry, the tested form may be a part): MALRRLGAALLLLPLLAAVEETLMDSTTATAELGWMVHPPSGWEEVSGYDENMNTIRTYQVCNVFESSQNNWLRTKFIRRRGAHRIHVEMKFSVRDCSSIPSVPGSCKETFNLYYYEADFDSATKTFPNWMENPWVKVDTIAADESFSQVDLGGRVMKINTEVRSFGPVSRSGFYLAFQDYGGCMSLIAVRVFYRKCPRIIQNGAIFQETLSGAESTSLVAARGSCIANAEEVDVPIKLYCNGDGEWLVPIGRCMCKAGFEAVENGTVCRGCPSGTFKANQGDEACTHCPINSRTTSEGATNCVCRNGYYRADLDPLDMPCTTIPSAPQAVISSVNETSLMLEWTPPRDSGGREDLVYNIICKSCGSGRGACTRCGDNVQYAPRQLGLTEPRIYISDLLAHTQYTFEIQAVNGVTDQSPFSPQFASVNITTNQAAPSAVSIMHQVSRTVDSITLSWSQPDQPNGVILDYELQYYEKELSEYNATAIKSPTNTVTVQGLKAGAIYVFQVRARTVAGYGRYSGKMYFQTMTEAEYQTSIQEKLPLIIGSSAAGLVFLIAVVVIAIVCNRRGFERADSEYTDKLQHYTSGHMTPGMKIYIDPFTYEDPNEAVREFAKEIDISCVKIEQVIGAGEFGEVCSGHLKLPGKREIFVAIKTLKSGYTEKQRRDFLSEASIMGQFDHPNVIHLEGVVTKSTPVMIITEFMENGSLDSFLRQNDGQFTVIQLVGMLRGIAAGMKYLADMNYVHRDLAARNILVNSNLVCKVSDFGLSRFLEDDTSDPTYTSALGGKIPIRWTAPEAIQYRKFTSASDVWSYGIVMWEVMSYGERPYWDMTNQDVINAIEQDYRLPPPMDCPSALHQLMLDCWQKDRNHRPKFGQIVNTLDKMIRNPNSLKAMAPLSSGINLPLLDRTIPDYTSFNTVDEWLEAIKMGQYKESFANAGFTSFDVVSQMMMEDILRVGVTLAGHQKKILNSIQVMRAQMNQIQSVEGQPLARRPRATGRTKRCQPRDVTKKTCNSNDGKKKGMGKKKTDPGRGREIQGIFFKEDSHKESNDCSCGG

[15] = biological target: Cyclin-dependent kinase 5/CDK5 activator 1 (Homo sapiens, UniProt Q00535); assay: Binding affinity to recombinant human full-length N-terminal GST-tagged CDK5 (1 to 292 residues)/N-terminal His6-tagged p25 (99 to 307 residues) expressed in baculovirus expression system using modified histone H1 as substrate incubated for 1 hr by TR-FRET assay
[16] = biological target: Dual specificity mitogen-activated protein kinase kinase 7 (Homo sapiens, UniProt O14733); assay: Binding affinity to recombinant human full-length N-terminal GST-tagged MAP2K7 (1 to 419 residues) expressed in baculovirus expression system using JNK2 as substrate incubated for 1 hr by TR-FRET assay
[17] = biological target: Ephrin type-B receptor 4 (Homo sapiens, UniProt P54760); assay: Binding affinity to recombinant N-terminal His-FLAG-GST-tagged EPHB4 (unknown origin) (577 to 987 residues) expressed in baculovirus infected Sf9 insect cells incubated for 1 hr by TR-FRET assay
[18] = biological target: Proto-oncogene tyrosine-protein kinase ROS (Homo sapiens, UniProt P08922); assay: Binding affinity to recombinant N-terminal His-FLAG-tagged ROS1 (unknown origin) (1883 to 2347 residues) expressed in baculovirus infected Sf9 insect cells incubated for 1 hr by TR-FRET assay
[19] = biological target: Tyrosine-protein kinase TXK (Homo sapiens, UniProt P42681); assay: Binding affinity to recombinant human N-terminal GST-tagged TXK (260 to 527 residues) expressed in baculovirus expression system using srctide as substrate incubated for 1 hr by TR-FRET assay
[20] = biological target: Serine/threonine-protein kinase SIK3 (Homo sapiens, UniProt Q9Y2K2); assay: Binding affinity to recombinant N-terminal His-FLAG-GST-tagged SIK3 (unknown origin) (59 to 365 residues) expressed in baculovirus infected Sf9 insect cells incubated for 1 hr by TR-FRET assay
Chain of Serine/threonine-protein kinase SIK3 (Q9Y2K2 whole entry, the tested form may be a part): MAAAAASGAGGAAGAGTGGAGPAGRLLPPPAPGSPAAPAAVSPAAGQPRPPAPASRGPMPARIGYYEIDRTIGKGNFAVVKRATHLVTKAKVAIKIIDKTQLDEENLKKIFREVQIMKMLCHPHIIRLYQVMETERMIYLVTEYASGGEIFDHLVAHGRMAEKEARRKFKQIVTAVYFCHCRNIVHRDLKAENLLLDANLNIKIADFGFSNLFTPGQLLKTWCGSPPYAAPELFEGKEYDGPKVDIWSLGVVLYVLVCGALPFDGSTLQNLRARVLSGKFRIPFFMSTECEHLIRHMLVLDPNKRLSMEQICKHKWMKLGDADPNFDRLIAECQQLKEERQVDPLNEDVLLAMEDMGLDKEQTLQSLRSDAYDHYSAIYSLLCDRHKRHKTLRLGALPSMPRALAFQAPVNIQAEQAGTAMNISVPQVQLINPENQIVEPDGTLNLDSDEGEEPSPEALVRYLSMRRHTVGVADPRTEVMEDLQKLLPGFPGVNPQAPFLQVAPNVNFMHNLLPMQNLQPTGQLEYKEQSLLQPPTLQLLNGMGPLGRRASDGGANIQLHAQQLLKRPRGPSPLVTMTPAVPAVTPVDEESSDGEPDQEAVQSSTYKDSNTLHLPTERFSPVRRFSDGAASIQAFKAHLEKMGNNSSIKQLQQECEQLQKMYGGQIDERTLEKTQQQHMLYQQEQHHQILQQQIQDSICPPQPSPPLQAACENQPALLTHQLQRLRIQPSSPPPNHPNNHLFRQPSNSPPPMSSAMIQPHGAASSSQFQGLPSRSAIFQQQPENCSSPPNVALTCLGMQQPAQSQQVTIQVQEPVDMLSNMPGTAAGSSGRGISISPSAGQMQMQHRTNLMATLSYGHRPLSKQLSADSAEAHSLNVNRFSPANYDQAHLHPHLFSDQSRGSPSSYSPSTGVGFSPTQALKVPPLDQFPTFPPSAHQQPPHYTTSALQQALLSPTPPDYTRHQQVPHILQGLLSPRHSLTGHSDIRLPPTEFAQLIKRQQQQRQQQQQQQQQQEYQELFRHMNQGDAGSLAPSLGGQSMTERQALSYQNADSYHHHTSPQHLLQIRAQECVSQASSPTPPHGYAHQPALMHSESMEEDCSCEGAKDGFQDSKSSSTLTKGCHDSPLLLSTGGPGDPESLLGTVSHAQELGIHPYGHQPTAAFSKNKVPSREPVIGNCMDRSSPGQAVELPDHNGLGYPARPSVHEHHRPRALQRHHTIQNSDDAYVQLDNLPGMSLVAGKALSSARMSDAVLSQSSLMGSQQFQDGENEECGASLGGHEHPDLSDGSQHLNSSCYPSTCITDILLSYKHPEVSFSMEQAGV

[21] = biological target: Ephrin type-B receptor 6 (Homo sapiens, UniProt O15197); assay: Binding affinity to recombinant N-terminal His-FLAG-GST-tagged EPHB6 (unknown origin) (683 to 1130 residues) expressed in baculovirus infected Sf9 insect cells incubated for 1 hr by TR-FRET assay
[22] = biological target: Ephrin type-A receptor 8 (Homo sapiens, UniProt P29322); assay: Binding affinity to recombinant N-terminal His-FLAG-GST-tagged […] (unknown origin) (571 to 924 residues) expressed in baculovirus infected Sf9 insect cells incubated for 1 hr by TR-FRET assay

Question: Which results are given for CO[C@@H]1[C@H](N(C)CCOCCOCCOCCNC(=O)CCC2=[N+]3C(=Cc4c(C)cc(C)n4[B-]3(F)F)C=C2)C[C@H]2O[C@]1(C)n1c3ccccc3c3c4c(c5c6ccccc6n2c5c31)C(=O)NC4?
Answer: Kd [1]: 745 nM; Kd [2]: 559 nM

Question: What does the source list for CO[C@@H]1[C@H](NCCOCCOCCOCCNC(=O)CCC2=[N+]3C(=Cc4c(C)cc(C)n4[B-]3(F)F)C=C2)C[C@H]2O[C@]1(C)n1c3ccccc3c3c4c(c5c6ccccc6n2c5c31)C(=O)NC4?
Answer: Kd [3]: 20 nM; Kd [4]: 94 nM; Kd [5]: 918 nM; Kd [6]: 14 nM; Kd [7]: 4 nM; Kd [8]: 147 nM; Kd [9]: 1100 nM; Kd [10]: 7 nM; Kd [11]: 109 nM; Kd [12]: 747 nM; Kd [13]: 43 nM; Kd [14]: 985 nM; Kd [15]: 87 nM; Kd [16]: 293 nM; Kd [17]: 1800 nM; Kd [18]: 238 nM; Kd [19]: 1010 nM; Kd [20]: 10 nM; Kd [21]: 570 nM; Kd [22]: 1560 nM
